This assay deals with RocR (Pseudomonas aeruginosa, UniProt Q9HX69). Kind of assay: RocR intrinsic fluorescence change (Kd […] by two fits); also non-competitive enzyme inhibition, Ki […]. The format is binding.
RocR, sequence (Q9HX69 whole entry): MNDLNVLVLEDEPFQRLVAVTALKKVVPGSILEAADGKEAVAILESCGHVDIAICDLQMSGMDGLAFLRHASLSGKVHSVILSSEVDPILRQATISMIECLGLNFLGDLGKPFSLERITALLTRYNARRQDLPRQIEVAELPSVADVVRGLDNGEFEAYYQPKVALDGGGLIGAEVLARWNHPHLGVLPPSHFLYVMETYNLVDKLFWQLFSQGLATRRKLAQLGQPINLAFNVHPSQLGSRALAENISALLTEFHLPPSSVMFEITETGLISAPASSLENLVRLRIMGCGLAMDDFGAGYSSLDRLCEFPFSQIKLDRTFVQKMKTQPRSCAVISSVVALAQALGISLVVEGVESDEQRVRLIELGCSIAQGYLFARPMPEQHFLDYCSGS

A word on the Kd: it is the equilibrium constant for the complex coming apart. `O=C(CCCn1sc2ccccc2c1=O)Nc1ccc(O)cc1` [compound 1] yielded a Kd of 14 ± 2 µM.

The values are drawn from paper PMC6024209, “Inhibition of P. aeruginosa c-di-GMP phosphodiesterase RocR and swarming motility by a benzoisothiazolinone derivative” (Chemical Science, 2016).
